pKi: −log10 of the molar value. Counter-ions that a name gives are not always drawn. Bounds are passed on as bounds.

Here are results for 23 molecules from patent US20230203041A1, “ANTAGONISTS OF THE ADENOSINE A2A RECEPTOR” (AdoRx Therapeutics Limited, priority 2020, published 2023).

Assay [1] addresses T1, human Adenosine A2a receptor (Homo sapiens, UniProt P29274).
T1 construct: expressed in transfected cells; host or cells: CHO cell membranes
The assay is described as follows: Adenosine receptor TR-FRET binding assay (CA200645 displacement), A2a. The note with it: 100 nM CA200645, CHO cell membranes, 2 hours at room temperature.
Experimental: All FRET binding experiments were conducted at room temperature in white 384-well plates, in assay binding buffer containing 1×LabMed (Cisbio, France), 100 μg/mL saponin, 1% DMSO and 0.02% pluronic acid. Binding of the fluorescently labelled Adenosine receptor antagonist XAC (CA200645, FRET acceptor) to terbium-labelled A1, A2a, A2b and A3 adenosine receptors (FRET donors) was detected by time-resolved FRET due to the close proximity of the donor and acceptor in a binding event. To investigate the ability of unlabelled test compounds to bind to Adenosine A1, A2a, A2b and A3 receptors, dose response curves were constructed that determined the ability of a range of concentrations to inhibit the binding of 30 nM CA200645 to the A2b receptor and 100 nM CA200645 to the A1, A2a, and A3 receptor.
Serial dilution (1:3 dilutions) of test compounds in neat DMSO and transfer of a 400 nL sample of test compound into the assay plate was carried out using the Mosquito (TTP Labtech, UK). The compound samples were incubated for 2 hours at room temperature with a fixed concentration of CA200645 defined for each receptor (see above) and CHO cell membranes containing the human Adenosine A1 (0.5 μg/well), A2a (0.3 μg/well), A2b (1 μg/well) or A3 (1 μg/well) receptor in 40 μL of assay buffer. Total and non-specific binding of CA200645 was determined in the absence and presence of 10 μM XAC, respectively. Following 2 hours incubation, the level of CA200645 binding was detected on a Pherastar FSX (BMG Labtech, Germany) using standard TR-FRET settings. The terbium donor was excited with three laser flashes at a wavelength of 337 nm, and donor and acceptor emission was detected at 620 nm and 665 nm wavelengths, respectively. FRET ratios were obtained by multiplying the acceptor/donor ratio value by 10,000. Specific binding was determined by subtracting the non-specific binding FRET ratio from the total binding FRET ratio. Compound IC50 curves were analysed using GraphPad Prism 7.0 (GraphPad, USA) and Ki affinity values were determined from the obtained IC50 values using the method of Cheng and Prusoff.

Assay [2] has as its target T2, human Adenosine A2b receptor (Homo sapiens, UniProt P29275).
T2 construct: expressed in transfected cells; host or cells: CHO cell membranes
T2 sequence (P29275 1-332): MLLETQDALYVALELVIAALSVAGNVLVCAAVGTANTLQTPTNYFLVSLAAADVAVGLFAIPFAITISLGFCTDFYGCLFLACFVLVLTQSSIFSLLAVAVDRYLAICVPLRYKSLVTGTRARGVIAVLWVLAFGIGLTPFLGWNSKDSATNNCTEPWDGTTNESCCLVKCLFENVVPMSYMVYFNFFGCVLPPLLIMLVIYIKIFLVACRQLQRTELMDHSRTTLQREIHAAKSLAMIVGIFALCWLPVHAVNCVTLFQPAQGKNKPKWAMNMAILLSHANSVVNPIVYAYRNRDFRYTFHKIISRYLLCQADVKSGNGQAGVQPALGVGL
The assay is described as follows: Adenosine receptor TR-FRET binding assay (CA200645 displacement), A2b. The conditions noted are these: 30 nM CA200645, CHO cell membranes, 2 hours at room temperature.

For assay [3], the target named is T3, human Adenosine A1 receptor (Homo sapiens, UniProt P30542).
T3 sequence (P30542 1-326): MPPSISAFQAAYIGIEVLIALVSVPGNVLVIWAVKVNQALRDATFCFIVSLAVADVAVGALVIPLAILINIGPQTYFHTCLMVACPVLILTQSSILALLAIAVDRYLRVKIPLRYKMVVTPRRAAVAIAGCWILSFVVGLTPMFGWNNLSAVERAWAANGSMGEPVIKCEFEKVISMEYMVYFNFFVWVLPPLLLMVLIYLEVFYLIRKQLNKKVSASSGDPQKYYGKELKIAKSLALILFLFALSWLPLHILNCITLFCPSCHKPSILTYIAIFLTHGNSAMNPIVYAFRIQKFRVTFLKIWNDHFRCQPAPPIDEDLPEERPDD
Briefly: Adenosine receptor TR-FRET binding assay (CA200645 displacement), A1.

The target in assay [4] is T4, human Adenosine A3 receptor (Homo sapiens, UniProt P0DMS8).
T4 sequence (P0DMS8 1-318): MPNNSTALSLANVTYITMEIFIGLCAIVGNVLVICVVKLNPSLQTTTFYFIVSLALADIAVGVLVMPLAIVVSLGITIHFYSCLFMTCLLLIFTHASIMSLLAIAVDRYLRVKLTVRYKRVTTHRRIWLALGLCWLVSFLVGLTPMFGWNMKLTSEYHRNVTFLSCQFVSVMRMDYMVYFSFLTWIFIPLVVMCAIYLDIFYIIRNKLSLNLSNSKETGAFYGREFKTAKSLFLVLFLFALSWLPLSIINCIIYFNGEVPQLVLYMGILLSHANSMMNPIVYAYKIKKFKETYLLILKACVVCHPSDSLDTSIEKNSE
Briefly: Adenosine receptor TR-FRET binding assay (CA200645 displacement), A3.

T1 sequence (P29274 whole entry): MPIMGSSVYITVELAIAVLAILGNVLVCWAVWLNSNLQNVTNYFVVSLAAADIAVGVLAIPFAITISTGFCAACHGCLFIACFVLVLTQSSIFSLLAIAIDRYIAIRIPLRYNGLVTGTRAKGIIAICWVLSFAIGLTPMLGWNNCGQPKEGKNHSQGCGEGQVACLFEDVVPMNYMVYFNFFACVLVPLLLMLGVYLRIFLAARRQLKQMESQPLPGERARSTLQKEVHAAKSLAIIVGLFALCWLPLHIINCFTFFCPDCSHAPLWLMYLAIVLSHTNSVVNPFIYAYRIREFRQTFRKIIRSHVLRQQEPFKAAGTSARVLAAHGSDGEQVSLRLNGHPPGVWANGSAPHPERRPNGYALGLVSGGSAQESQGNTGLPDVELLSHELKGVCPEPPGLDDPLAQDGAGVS

`Cc1cc(-c2c(-c3cccc(C#N)c3)nn3ccc(NC(=O)NCC(C)(C)O)nc23)cc(Cl)n1` [Example 30.1, 1-[3-(2-Chloro-6-methyl-4-pyridyl)-2-(3-cyanophenyl)pyrazolo[1,5-a]pyrimidin-5-yl]-3-(2-hydroxy-2-methyl-propyl)urea]: the pKi in assay [1] is 8.89; in assay [2], 8.30; in assay [3], 7.59; in assay [4], under 6.00.

In the case of `CCN1CCC(NC(=O)Nc2ccn3nc(-c4cccc(C#N)c4)c(-c4cc(C)nc(Cl)c4)c3n2)CC1` [Example 30.2, 1-[3-(2-Chloro-6-methyl-4-pyridyl)-2-(3-cyanophenyl)pyrazolo[1,5-a]pyrimidin-5-yl]-3-(1-ethyl-4-piperidyl)urea], the pKi was 7.50 in assay [1], 7.31 in assay [2], 6.89 in assay [3] and under 6.00 in assay [4].

Regarding `Cc1cc(-c2c(-c3cccc(C#N)c3)nn3ccc(NC(=O)N4CC5(COC5)C4)nc23)cc(C)n1` [Example 30.4, N-[2-(3-Cyanophenyl)-3-(2,6-dimethyl-4-pyridyl)pyrazolo[1,5-a]pyrimidin-5-yl]-2-oxa-6-azaspiro[3.3]heptane-6-carboxamide], the pKi in assay [1] was 8.11; in assay [2], 7.14; in assay [3], 6.99; in assay [4] it was under 6.00.

As to `Cc1cc(-c2c(-c3cccc(C#N)c3)nn3ccc(NC(=O)N4CCC(C)(C#N)CC4)nc23)cc(C)n1` [Example 30.5, 4-Cyano-N-[2-(3-cyanophenyl)-3-(2,6-dimethyl-4-pyridyl)pyrazolo[1,5-a]pyrimidin-5-yl]-4-methyl-piperidine-1-carboxamide], the pKi is 8.08 in assay [1], 7.55 in assay [2], 6.58 in assay [3] and under 6.00 in assay [4].

`Cc1cc(-c2c(-c3cccc(C#N)c3)nn3ccc(NC(=O)N4CCNCC4)nc23)cc(Cl)n1` [Example 31, N-[3-(2-Chloro-6-methyl-4-pyridyl)-2-(3-cyanophenyl)pyrazolo[1,5-a]pyrimidin-5-yl]piperazine-1-carboxamide]: the pKi in assay [1] was 7.98; in assay [2] it was 8.70; in assay [3], 7.02; in assay [4], under 6.00.

With `Cc1cc(-c2c(-c3cccc(C#N)c3)nn3ccc(NC(=O)N[C@H]4CCNC4)nc23)cc(Cl)n1` [Example 31.1, 1-[3-(2-Chloro-6-methyl-4-pyridyl)-2-(3-cyanophenyl)pyrazolo[1,5-a]pyrimidin-5-yl]-3-[(3S)-pyrrolidin-3-yl]urea trifluoroacetate], the negative-log Ki (pKi) is 7.97 in assay [1], 7.82 in assay [2], 6.70 in assay [3] and under 6.00 in assay [4].

On to `Cc1cc(-c2c(-c3cccc(C#N)c3)nn3ccc(NC(=O)NCCN)nc23)cc(Cl)n1` [Example 31.2, 1-(2-Aminoethyl)-3-[3-(2-chloro-6-methyl-4-pyridyl)-2-(3-cyanophenyl)pyrazolo[1,5-a]pyrimidin-5-yl]urea trifluoroacetate], for which the negative-log Ki (pKi) in assay [1] was 8.34; in assay [2] it was 8.22; in assay [3] it was 6.62; in assay [4] it was under 6.00.

Take `Cc1cc(-c2c(-c3cccc(C#N)c3)nn3ccc(NC(=O)N[C@@H]4CCNC4)nc23)cc(Cl)n1` [Example 31.3, 1-[3-(2-Chloro-6-methyl-4-pyridyl)-2-(3-cyanophenyl)pyrazolo[1,5-a]pyrimidin-5-yl]-3-[(3R)-pyrrolidin-3-yl]urea trifluoroacetate]: the pKi was 8.34 in assay [1], 8.30 in assay [2], 6.82 in assay [3] and under 6.00 in assay [4].

For the molecule `Cc1cc(-c2c(-c3cccc(C#N)c3)nn3ccc(NC(=O)NCC(C)(C)N)nc23)cc(Cl)n1` [Example 31.4, 1-(2-Amino-2-methyl-propyl)-3-[3-(2-chloro-6-methyl-4-pyridyl)-2-(3-cyanophenyl)pyrazolo[1,5-a]pyrimidin-5-yl]urea trifluoroacetate], the pKi in assay [1] was 8.01; in assay [2], 7.89; in assay [3], 6.95; in assay [4], under 6.00.

Regarding `Cc1cc(-c2c(-c3cccc(C#N)c3)nn3ccc(N/C(N)=N\C#N)nc23)cc(Cl)n1` [Example 32, 1-[3-(2-Chloro-6-methyl-4-pyridyl)-2-(3-cyanophenyl)pyrazolo[1,5-a]pyrimidin-5-yl]-2-cyano-guanidine], the pKi in assay [1] is 7.76; in assay [2], 7.28; in assay [3], 6.10; in assay [4], under 6.00.

`CCn1nccc1-c1c(-c2cccc(C#N)c2)nn2ccc(NCC(C)(C)O)nc12` [Example 33, 3-[3-(2-Ethylpyrazol-3-yl)-5-[(2-hydroxy-2-methyl-propyl)amino]pyrazolo[1,5-a]pyrimidin-2-yl]benzonitrile]: the pKi in assay [1] was 7.88; in assay [2], 7.55; in assay [3], 6.93; in assay [4] it was under 6.00.

Regarding `CCn1nccc1-c1c(-c2cccc(C#N)c2)nn2ccc(N3CCN(C)C(CO)C3)nc12` (centres unmarked) [Example 33.1], the negative logarithm of the Ki (pKi) is 7.83 in assay [1], 7.21 in assay [2], 6.74 in assay [3] and under 6.00 in assay [4].

With `CCn1nccc1-c1c(-c2cccc(C#N)c2)nn2ccc(N3CC4CCC(C3)O4)nc12` [Example 33.2], the pKi was 7.82 in assay [1], 6.80 in assay [2], 6.90 in assay [3] and under 6.00 in assay [4].

As to `CCn1nccc1-c1c(-c2cccc(C#N)c2)nn2ccc(N3CC4CCC(C3)N4C)nc12` [Example 33.3], the pKi is 7.54 in assay [1], 6.15 in assay [2], 7.17 in assay [3] and under 6.00 in assay [4].

In the case of `CCn1nccc1-c1c(-c2cccc(C#N)c2)nn2ccc(N3CCN(S(C)(=O)=O)CC3)nc12` [Example 33.4], the negative-log Ki (pKi) is 7.31 in assay [1], 6.92 in assay [2], 6.60 in assay [3] and under 6.00 in assay [4].

Regarding `CCn1nccc1-c1c(-c2cccc(C#N)c2)nn2ccc(NCc3nnc[nH]3)nc12` [Example 33.5], the pKi in assay [1] was 7.04; in assay [2], 7.77; in assay [3], 6.91; in assay [4], under 6.00.

Regarding `CCn1nccc1-c1c(-c2cccc(C#N)c2)nn2ccc(N3CCNCC3)nc12` [Example 33.6], the pKi in assay [1] was 6.87; in assay [2], 7.21; in assay [3], 6.05; in assay [4], under 6.00.

Regarding `CCn1nccc1-c1c(-c2cccc(C#N)c2)nn2ccc(N3CCS(=N)(=O)CC3)nc12` [Example 33.7], the pKi in assay [1] was 6.36; in assay [2], 6.38; in assay [3], 5.75; in assay [4] it was under 6.00.

Turning to `CC(C)(C)OC(=O)N1CCC[C@H]1CNc1ccn2nc(-c3ccco3)c(C#N)c2n1` [Example 37.4], the pKi was 7.53 in assay [1], 5.76 in assay [2], 7.42 in assay [3] and 6.11 in assay [4].

For the molecule `CC(C)(C)OC(=O)N1CCO[C@H](CNc2ccn3nc(-c4ccco4)c(C#N)c3n2)C1` [Example 37.5], the negative logarithm of the Ki (pKi) is 7.48 in assay [1], 5.96 in assay [2], 6.88 in assay [3] and 5.76 in assay [4].

As to `N#Cc1c(-c2ccco2)nn2ccc(NCC3CCN(Cc4ccccc4)CC3)nc12` [Example 37.9], the negative-log Ki (pKi) in assay [1] was 7.16; in assay [2], 7.44; in assay [3], 6.40; in assay [4], under 6.00.

With `C[C@@H]1CN(c2ccn3nc(-c4ccco4)c(C#N)c3n2)CCN1C(=O)OC(C)(C)C` [Example 37.10, tert-butyl (2R)-4-[3-cyano-2-(2-furyl)pyrazolo[1,5-a]pyrimidin-5-yl]-2-methyl-piperazine-1-carboxylate], the pKi in assay [1] is 7.12; in assay [2] it was 5.30; in assay [3], 5.75; in assay [4] it was 5.54.

With `N#Cc1c(-c2ccco2)nn2ccc(NCCN3CCN(Cc4ccccc4)CC3)nc12` [Example 37.12], the pKi was 6.51 in assay [1], 5.88 in assay [2], 6.50 in assay [3] and 6.03 in assay [4].
